# Assays:
# Type in all cases: in vivo
# [1] = test system: barnyardgrass (Echinochloa crus-galli); assay: Test G Pre-Emergence Protocol; conditions: Echinochloa crus-galli, pre-emergence, 312 h, evaluated after 13 days; for pest or weed control at 15.625 g/ha: 15.625 g ai/ha, read-out: Barnyard grass damage rating (100=total damage to plant; 0=no damage to plant); for pest or weed control at 62.5 g/ha: 62.5 g ai/ha, 100=total damage to plant, 0=no damage to plant, read-out: plant damage rating, Barnyardgrass; for pest or weed control at 250 g/ha: 250 g ai/ha, read-out: Barnyardgrass damage rating (100=total damage to plant; 0=no damage to plant)
# Description: (§1) Seeds of corn (Zea mays), giant foxtail (Setaria faberi), barnyardgrass (Echinochloa crus-galli), ivy-leaved morning glory (Ipomoea hederacea), redroot pigweed (Amaranthus retroflexus) and velvetleaf (Abutilon theophrasti) were sown in standard soil in pots. After cultivation for one day under controlled conditions in a glasshouse (at 24/16° C., day/night; 14 hours light; 65% humidity), the plants were sprayed with an aqueous spray solution derived from the formulation of the technical active ingredient in acetone/water (50:50) solution containing 0.5% Tween 20 (polyoxyethylene sorbitan monolaurate, CAS RN 9005-64-5) to give a final dose of 15.625, 62.5 or 250 g/ha of test compound.
# (§2) The test plants were then grown on under controlled conditions in a glasshouse (at 24/16° C., day/night; 14 hours light; 65% humidity) and watered twice daily. After 13 days the test was evaluated (100=total damage to plant; 0=no damage to plant). A dash (-) means no test result.
# corn (Zea mays) = assay: Test G Pre-Emergence Protocol; conditions: Zea mays, pre-emergence, 312 h, evaluated after 13 days; for plant injury at 15.625 g/ha: 15.625 g ai/ha; for plant injury at 15.625 g/ha / plant injury at 250 g/ha: read-out: Corn damage rating (100=total damage to plant; 0=no damage to plant); for plant injury at 62.5 g/ha: 62.5 g ai/ha, 100=total damage to plant, 0=no damage to plant, read-out: plant damage rating, Corn; for plant injury at 250 g/ha: 250 g ai/ha
# Description: as §1, §2
# [2] = test system: giant foxtail (Setaria faberi); assay: Test G Pre-Emergence Protocol; conditions: Setaria faberi, pre-emergence, 312 h, evaluated after 13 days; for pest or weed control at 15.625 g/ha: 15.625 g ai/ha; for pest or weed control at 15.625 g/ha / pest or weed control at 250 g/ha: read-out: Foxtail, Giant damage rating (100=total damage to plant; 0=no damage to plant); for pest or weed control at 62.5 g/ha: 62.5 g ai/ha, 100=total damage to plant, 0=no damage to plant, read-out: plant damage rating, Foxtail, Giant; for pest or weed control at 250 g/ha: 250 g ai/ha
# Description: as §1, §2
# [3] = test system: ivy-leaved morning glory (Ipomoea hederacea); assay: Test G Pre-Emergence Protocol; conditions: Ipomoea, pre-emergence, 312 h, evaluated after 13 days; for pest or weed control at 15.625 g/ha: 15.625 g ai/ha, read-out: Morning-glory, Ivy-leaved damage rating (100=total damage to plant; 0=no damage to plant); for pest or weed control at 62.5 g/ha: 62.5 g ai/ha, 100=total damage to plant, 0=no damage to plant, read-out: plant damage rating, Morningglory, Ivy-leaved; for pest or weed control at 250 g/ha: 250 g ai/ha, read-out: Morningglory, Ivy-leaved damage rating (100=total damage to plant; 0=no damage to plant)
# Description: as §1, §2
# [4] = test system: redroot pigweed (Amaranthus retroflexus); assay: Test G Pre-Emergence Protocol; conditions: Amaranthus retroflexus, pre-emergence, 312 h, evaluated after 13 days; for pest or weed control at 15.625 g/ha: 15.625 g ai/ha; for pest or weed control at 15.625 g/ha / pest or weed control at 250 g/ha: read-out: Pigweed, Redroot damage rating (100=total damage to plant; 0=no damage to plant); for pest or weed control at 62.5 g/ha: 62.5 g ai/ha, 100=total damage to plant, 0=no damage to plant, read-out: plant damage rating, Pigweed, Redroot; for pest or weed control at 250 g/ha: 250 g ai/ha
# Description: as §1, §2
# [5] = test system: velvetleaf (Abutilon theophrasti); assay: Test G Pre-Emergence Protocol; conditions: Abutilon theophrasti, pre-emergence, 312 h, evaluated after 13 days; for pest or weed control at 15.625 g/ha: 15.625 g ai/ha; for pest or weed control at 15.625 g/ha / pest or weed control at 250 g/ha: read-out: Velvetleaf damage rating (100=total damage to plant; 0=no damage to plant); for pest or weed control at 62.5 g/ha: 62.5 g ai/ha, 100=total damage to plant, 0=no damage to plant, read-out: plant damage rating, Velvetleaf; for pest or weed control at 250 g/ha: 250 g ai/ha
# Description: as §1, §2
# [6] = test system: giant foxtail (Setaria faberi); assay: Test G Post-Emergence Protocol; conditions: Setaria faberi, post-emergence, 312 h; for pest or weed control at 15.625 g/ha: 15.625 g ai/ha, evaluated after 13 days (100=total damage to plant; 0=no damage to plant), read-out: Foxtail, Giant damage rating; for pest or weed control at 62.5 g/ha: 62.5 g ai/ha, read-out: Foxtail, Giant damage rating (100=total damage to plant; 0=no damage to plant); for pest or weed control at 62.5 g/ha / pest or weed control at 250 g/ha: evaluated after 13 days; for pest or weed control at 250 g/ha: 250 g ai/ha, read-out: damage to plant, Foxtail, Giant (100=total damage to plant; 0=no damage to plant)
# Description: as §1, with “8 days” for “one day”
# as §2
# [7] = test system: ivy-leaved morning glory (Ipomoea hederacea); assay: Test G Post-Emergence Protocol; conditions: Ipomoea, post-emergence, 312 h; for pest or weed control at 15.625 g/ha: 15.625 g ai/ha, evaluated after 13 days (100=total damage to plant; 0=no damage to plant), read-out: Morningglory, Ivy-leaved damage rating; for pest or weed control at 62.5 g/ha: 62.5 g ai/ha, read-out: Morningglory, Ivy-leaved damage rating (100=total damage to plant; 0=no damage to plant); for pest or weed control at 62.5 g/ha / pest or weed control at 250 g/ha: evaluated after 13 days; for pest or weed control at 250 g/ha: 250 g ai/ha, read-out: damage to plant, Morningglory, Ivy-leaved (100=total damage to plant; 0=no damage to plant)
# Description: as §1, with “8 days” for “one day”
# as §2
# [8] = test system: velvetleaf (Abutilon theophrasti); assay: Test G Post-Emergence Protocol; conditions: Abutilon theophrasti, post-emergence, 312 h; for pest or weed control at 15.625 g/ha: 15.625 g ai/ha, evaluated after 13 days (100=total damage to plant; 0=no damage to plant), read-out: Velvetleaf damage rating; for pest or weed control at 62.5 g/ha: 62.5 g ai/ha, read-out: Velvetleaf damage rating (100=total damage to plant; 0=no damage to plant); for pest or weed control at 62.5 g/ha / pest or weed control at 250 g/ha: evaluated after 13 days; for pest or weed control at 250 g/ha: 250 g ai/ha, read-out: damage to plant, Velvetleaf (100=total damage to plant; 0=no damage to plant)
# Description: as §1, with “8 days” for “one day”
# as §2
Compound,pest or weed control at 15.625 g/ha [1] [%],pest or weed control at 62.5 g/ha [1] [%],pest or weed control at 250 g/ha [1] [%],plant injury at 15.625 g/ha (corn (Zea mays)) [%],plant injury at 62.5 g/ha (corn (Zea mays)) [%],plant injury at 250 g/ha (corn (Zea mays)) [%],pest or weed control at 15.625 g/ha [2] [%],pest or weed control at 62.5 g/ha [2] [%],pest or weed control at 250 g/ha [2] [%],pest or weed control at 62.5 g/ha [3] [%],pest or weed control at 250 g/ha [3] [%],pest or weed control at 15.625 g/ha [4] [%],pest or weed control at 250 g/ha [4] [%],pest or weed control at 15.625 g/ha [5] [%],pest or weed control at 62.5 g/ha [5] [%],pest or weed control at 250 g/ha [5] [%],pest or weed control at 15.625 g/ha [6] [%],pest or weed control at 62.5 g/ha [6] [%],pest or weed control at 250 g/ha [6] [%],pest or weed control at 15.625 g/ha [7] [%],also measured
CN1C[C@H](c2cccc(C(C)(C)C#N)c2)[C@@H](C(=O)Nc2cccc(F)c2F)C1=O (racemic) [Compound 1497],0,30,80,0,0,10,0,60,80,0,20,0,0,0,0,0,30,60,60,0,pest or weed control at 15.625 g/ha [3]: 0%; pest or weed control at 62.5 g/ha [4]: 0%; pest or weed control at 62.5 g/ha [7]: 0%; pest or weed control at 250 g/ha [7]: 10%; pest or weed control at 15.625 g/ha [8]: 0%; pest or weed control at 62.5 g/ha [8]: 0%; pest or weed control at 250 g/ha [8]: 20%
CN1C[C@@H](c2ccc(C(F)(F)F)cc2)[C@H](C(=O)Nc2ncc(C(F)(F)F)s2)C1=O (racemic) [Compound 1504],0,0,0,0,0,0,0,0,0,0,0,0,0,0,0,0,0,0,0,0,pest or weed control at 15.625 g/ha [3]: 0%; pest or weed control at 62.5 g/ha [4]: 0%; pest or weed control at 62.5 g/ha [7]: 0%; pest or weed control at 250 g/ha [7]: 0%; pest or weed control at 15.625 g/ha [8]: 0%; pest or weed control at 62.5 g/ha [8]: 0%; pest or weed control at 250 g/ha [8]: 0%
CN1C[C@@H](c2ccc(C(F)(F)F)cc2)[C@H](C(=O)Nc2cnccc2C(F)(F)F)C1=O (racemic) [Compound 1401],20,30,80,0,10,20,40,70,90,0,20,0,90,0,30,70,0,60,70,0,pest or weed control at 62.5 g/ha [4]: 40%; pest or weed control at 62.5 g/ha [7]: 0%; pest or weed control at 250 g/ha [7]: 30%; pest or weed control at 15.625 g/ha [8]: 0%; pest or weed control at 62.5 g/ha [8]: 20%; pest or weed control at 250 g/ha [8]: 30%
CN1C[C@@H](c2ccc(C(F)(F)F)cc2)[C@H](C(=O)Nc2ccnc(Cl)c2Cl)C1=O (racemic) [Compound 1503],0,0,20,0,0,0,0,0,30,0,0,0,0,0,0,0,0,20,40,0,pest or weed control at 62.5 g/ha [7]: 0%; pest or weed control at 250 g/ha [7]: 0%; pest or weed control at 15.625 g/ha [8]: 0%; pest or weed control at 62.5 g/ha [8]: 0%; pest or weed control at 250 g/ha [8]: 0%
